Literature values in US20110008426A1, “MODIFIED RELEASE PHARMACEUTICAL COMPOSITIONS COMPRISING MYCOPHENOLATE AND PROCESSES THEREOF” (priority 2008, published 2011).
Several values for one entry are separate records, joined by “and”; a condition that tells them apart may be missing. Equal entries are not always repeated. Where two headings read alike, the source gives them in different places. Values belong to the compound of their own block, whether it stands above or below them.

Legend:
[1] = 423 de novo kidney allograft recipients
[2] = not given; remark: listed apart in the source
[3] = MMF 1 g b.i.d; EC-MPS 720 mg b.i.d
[4] = transplant patients, acute rejection
[5] = not given; remark: listed apart in the source
[6] = controlled de novo and maintenance renal studies, patients

SMILES: COc1c(C)c2c(c(O)c1C/C=C(\C)CCC(=O)OCCN1CCOCC1)C(=O)OC2 [MMF, mycophenolate mofetil]
adverse effects: CMV infection (www.rxlist.com): 18.1% | adverse effects: blood and lymphatic system disorders (www.rxlist.com): 42.4% | adverse effects: constipation (www.rxlist.com): 39.5% | adverse effects: diarrhea (www.rxlist.com): 24.8% | adverse effects: nausea (www.rxlist.com): 27.1% | adverse effects: urinary tract infections (www.rxlist.com): 33.3% | adverse effects: vomiting (www.rxlist.com): 20% | incidence of GI adverse events [1]: 77.1% | Adverse Events: Anemia [2, 6]: 21.6% | Adverse Events: CMV infections [2, 6]: 20.2% | Adverse Events: Constipation [2, 6]: 38.0% | Adverse Events: Diarrhoea [2, 6]: 24.8% | Adverse Events: Dyspepsia [2, 6]: 22.5% | Adverse Events: Insomnia [2, 6]: 23.5% | Adverse Events: Leukopenia [2, 6]: 19.2% | Adverse Events: Nausea [2, 6]: 29.1% | Adverse Events: Urinary Tract Infection [2, 6]: 29.1% | Adverse Events: Vomiting [2, 6]: 20% | Cmax of MPA [3]: 21300 ng/mL

SMILES: COc1c(C)c2c(c(O)c1C/C=C(\C)CCC(=O)O)C(=O)OC2 [mycophenolic acid, Mycophenolic acid]
mycophenolic acid AUC expected to yield 50% of maximal achievable efficacy [4]: 15 µg·h/mL | mycophenolic acid AUC that would yield 90% efficacy [4]: 25 µg·h/mL and 40 µg·h/mL

Cmax of MPA [3]: 18930 ng/mL | solubility of the drug ([5]; pH above 6.0): high solubility | solubility of the drug ([5]; pH below 6.0): poor solubility
SMILES: COc1c(C)c2c(c(O)c1C/C=C(\C)CCC(=O)O)C(=O)OC2 [MPS, mycophenolate sodium]
adverse effects: CMV infection (in vivo): 20.2% | adverse effects: blood and lymphatic system disorders (www.rxlist.com): 41.8% | adverse effects: constipation (www.rxlist.com): 38% | adverse effects: diarrhea (www.rxlist.com): 23.5% | adverse effects: nausea (www.rxlist.com): 29% | adverse effects: urinary tract infections (www.rxlist.com): 29.1% | adverse effects: vomiting (www.rxlist.com): 23% | incidence of GI adverse events [1]: 79.8% | Adverse Events: Anemia [2, 6]: 21.9% | Adverse Events: Constipation [2, 6]: 39.5% | Adverse Events: Diarrhoea [2, 6]: 23.5% | Adverse Events: Dyspepsia [2, 6]: 19% | Adverse Events: Insomnia [2, 6]: 23.8% | Adverse Events: Leukopenia [2, 6]: 20.5% | Adverse Events: Nausea [2, 6]: 27.1% | Adverse Events: Urinary Tract Infection [2, 6]: 33.3% | Adverse Events: Vomiting [2, 6]: 23% | Adverse Events: CMV infections ([2]; in vivo): 18.1%
